Data taken from US20250171495A1, “MUTLI-TARGETED SERINE PROTEASE INHIBITORS FOR TREATMENT OF CANCER AND VIRAL INFECTION” (Washington University, priority 2023, published 2025).

Legend:
Format in all cases: biochemical
TMPRSS2 = TMPRSS2 (Homo sapiens, UniProt O15393); assay: PS-SCL / HyCoSuL substrate specificity screening, TMPRSS2; details: for P2 Position Substrate Activity for TMPRSS2 (percent substrate cleavage/proteolysis): residue fixed at P2 position of substrate library; for P2 Position Substrate Activity for TMPRSS2 (percent substrate cleavage/proteolysis) / P3 Position Substrate Activity for TMPRSS2 (percent substrate cleavage/proteolysis): best recognized amino acid set to 100%; for P3 Position Substrate Activity for TMPRSS2 (percent substrate cleavage/proteolysis) / P3 Position Various Amino Acids Substrate Activity, TMPRSS2 (percent substrate cleavage/proteolysis): residue fixed at P3 position of substrate library; for P4 Position Various Amino Acids Substrate Activity, TMPRSS2 (percent substrate proteolysis/cleavage): residue fixed at P4 position of substrate library
matriptase = molecular target: T1, matriptase (Homo sapiens, UniProt Q9Y5Y6); assay: HyCoSuL P4-P2 substrate specificity screening, matriptase; details: for P2 Position Substrate Activity for matriptase (percent substrate cleavage/proteolysis): residue fixed at P2 position; for P2 Position Substrate Activity for matriptase (percent substrate cleavage/proteolysis) / P3 Position Substrate Activity for matriptase (percent substrate cleavage/proteolysis): P1-Arg HyCoSuL, 100 μM, best recognized amino acid set to 100%; for P3 Position Various Amino Acids Substrate Activity, matriptase (percent substrate cleavage/proteolysis): residue fixed at P3 position of substrate library; for P3 Position Substrate Activity for matriptase (percent substrate cleavage/proteolysis): residue fixed at P3 position; for P4 Position Various Amino Acids Substrate Activity, matriptase (percent substrate proteolysis/cleavage): residue fixed at P4 position of substrate library
T1 sequence (Q9Y5Y6 1-855): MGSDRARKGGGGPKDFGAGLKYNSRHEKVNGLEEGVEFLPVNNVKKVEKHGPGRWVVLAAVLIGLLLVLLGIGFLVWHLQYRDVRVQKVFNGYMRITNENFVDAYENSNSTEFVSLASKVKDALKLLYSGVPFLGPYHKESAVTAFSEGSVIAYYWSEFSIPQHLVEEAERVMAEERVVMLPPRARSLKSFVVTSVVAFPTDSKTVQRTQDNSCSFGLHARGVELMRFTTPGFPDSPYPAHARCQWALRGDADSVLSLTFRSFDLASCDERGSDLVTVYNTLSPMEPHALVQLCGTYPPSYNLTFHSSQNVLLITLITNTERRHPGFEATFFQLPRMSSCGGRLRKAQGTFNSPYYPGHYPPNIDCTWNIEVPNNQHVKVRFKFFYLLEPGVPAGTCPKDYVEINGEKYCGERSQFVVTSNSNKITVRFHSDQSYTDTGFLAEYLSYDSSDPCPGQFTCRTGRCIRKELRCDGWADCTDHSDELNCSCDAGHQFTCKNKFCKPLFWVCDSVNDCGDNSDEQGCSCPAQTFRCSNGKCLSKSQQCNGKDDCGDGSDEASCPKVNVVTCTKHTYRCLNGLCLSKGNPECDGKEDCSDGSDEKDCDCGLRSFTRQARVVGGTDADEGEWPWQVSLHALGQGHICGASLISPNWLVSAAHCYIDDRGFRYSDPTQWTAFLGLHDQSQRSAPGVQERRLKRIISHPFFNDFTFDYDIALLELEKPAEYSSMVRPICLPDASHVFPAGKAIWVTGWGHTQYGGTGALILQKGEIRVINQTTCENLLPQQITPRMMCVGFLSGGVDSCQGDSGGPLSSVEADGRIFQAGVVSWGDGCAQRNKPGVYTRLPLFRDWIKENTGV

hepsin = molecular target: T2, hepsin (Homo sapiens, UniProt P05981); assay: HyCoSuL P4-P2 substrate specificity screening, hepsin; details: for P2 Position Substrate Activity for hepsin (percent substrate cleavage/proteolysis): residue fixed at P2 position; for P2 Position Substrate Activity for hepsin (percent substrate cleavage/proteolysis) / P3 Position Substrate Activity for hepsin (percent substrate cleavage/proteolysis): P1-Arg HyCoSuL, 100 μM, best recognized amino acid set to 100%; for P3 Position Substrate Activity for hepsin (percent substrate cleavage/proteolysis): residue fixed at P3 position; for P4 Position Various Amino Acids Substrate Activity, hepsin (percent substrate proteolysis/cleavage): residue fixed at P4 position of substrate library; for P3 Position Various Amino Acids Substrate Activity, hepsin (percent substrate cleavage/proteolysis): residue fixed at P3 position of substrate library
T2 construct: purchased R&D Systems 4776-SE-010

HGFA = molecular target: T3, HGFA (Homo sapiens, UniProt Q04756); assay: HyCoSuL P4-P2 substrate specificity screening, HGFA; details: for P2 Position Substrate Activity for HGFA (percent substrate cleavage/proteolysis): residue fixed at P2 position; for P2 Position Substrate Activity for HGFA (percent substrate cleavage/proteolysis) / P3 Position Substrate Activity for HGFA (percent substrate cleavage/proteolysis): P1-Arg HyCoSuL, 100 μM, best recognized amino acid set to 100%; for P3 Position Substrate Activity for HGFA (percent substrate cleavage/proteolysis): residue fixed at P3 position; for P4 Position Various Amino Acids Substrate Activity, HGFA (percent substrate proteolysis/cleavage): residue fixed at P4 position of substrate library; for P3 Position Various Amino Acids Substrate Activity, HGFA (percent substrate cleavage/proteolysis): residue fixed at P3 position of substrate library
T3 sequence (Q04756 373-655): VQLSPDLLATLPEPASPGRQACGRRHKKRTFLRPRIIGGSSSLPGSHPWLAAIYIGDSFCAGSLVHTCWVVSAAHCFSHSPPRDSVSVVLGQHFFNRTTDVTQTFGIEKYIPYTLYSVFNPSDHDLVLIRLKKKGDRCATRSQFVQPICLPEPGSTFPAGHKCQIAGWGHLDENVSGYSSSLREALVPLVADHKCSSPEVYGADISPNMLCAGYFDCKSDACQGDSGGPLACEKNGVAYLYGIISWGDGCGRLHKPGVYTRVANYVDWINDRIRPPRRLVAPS

Chain of TMPRSS2 (O15393 whole entry): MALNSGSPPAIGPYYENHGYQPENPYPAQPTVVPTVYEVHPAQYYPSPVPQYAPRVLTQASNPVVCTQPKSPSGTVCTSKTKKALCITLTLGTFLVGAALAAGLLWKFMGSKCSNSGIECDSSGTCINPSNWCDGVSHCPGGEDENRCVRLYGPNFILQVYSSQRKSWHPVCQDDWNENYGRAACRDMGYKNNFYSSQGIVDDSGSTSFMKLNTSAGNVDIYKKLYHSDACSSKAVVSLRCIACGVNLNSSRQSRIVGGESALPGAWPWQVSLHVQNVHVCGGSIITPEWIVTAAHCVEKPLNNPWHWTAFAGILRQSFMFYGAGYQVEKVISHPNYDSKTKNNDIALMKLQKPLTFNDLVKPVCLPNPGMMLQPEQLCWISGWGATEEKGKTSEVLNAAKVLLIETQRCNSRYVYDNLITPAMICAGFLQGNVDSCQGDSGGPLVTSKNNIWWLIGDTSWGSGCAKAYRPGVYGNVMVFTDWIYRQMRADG
T2 sequence (P05981 163-417 limits assumed): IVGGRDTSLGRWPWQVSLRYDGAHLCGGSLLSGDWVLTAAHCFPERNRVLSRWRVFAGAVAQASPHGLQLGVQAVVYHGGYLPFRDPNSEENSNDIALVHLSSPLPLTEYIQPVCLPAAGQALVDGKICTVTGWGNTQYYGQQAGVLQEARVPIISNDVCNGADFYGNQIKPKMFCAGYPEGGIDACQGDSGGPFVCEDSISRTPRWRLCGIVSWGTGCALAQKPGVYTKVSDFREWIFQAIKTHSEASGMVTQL
T2 sequence (P05981 1-162 partner limits assumed): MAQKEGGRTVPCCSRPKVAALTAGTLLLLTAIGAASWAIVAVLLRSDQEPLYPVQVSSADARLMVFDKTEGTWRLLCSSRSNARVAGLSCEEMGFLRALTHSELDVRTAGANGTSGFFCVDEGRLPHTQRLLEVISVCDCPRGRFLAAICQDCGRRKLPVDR

| Substance | P2 Position Substrate Activity for TMPRSS2 (percent substrate cleavage/proteolysis) (TMPRSS2) [%] | P3 Position Substrate Activity for TMPRSS2 (percent substrate cleavage/proteolysis) (TMPRSS2) [%] | P4 Position Various Amino Acids Substrate Activity, TMPRSS2 (percent substrate proteolysis/cleavage) (TMPRSS2) [%] | P2 Position Substrate Activity for matriptase (percent substrate cleavage/proteolysis) (matriptase) [%] | P3 Position Various Amino Acids Substrate Activity, matriptase (percent substrate cleavage/proteolysis) (matriptase) [%] | P3 Position Substrate Activity for matriptase (percent substrate cleavage/proteolysis) (matriptase) [%] | P4 Position Various Amino Acids Substrate Activity, matriptase (percent substrate proteolysis/cleavage) (matriptase) [%] | P2 Position Substrate Activity for hepsin (percent substrate cleavage/proteolysis) (hepsin) [%] | P3 Position Substrate Activity for hepsin (percent substrate cleavage/proteolysis) (hepsin) [%] | P4 Position Various Amino Acids Substrate Activity, hepsin (percent substrate proteolysis/cleavage) (hepsin) [%] | P2 Position Substrate Activity for HGFA (percent substrate cleavage/proteolysis) (HGFA) [%] | P3 Position Substrate Activity for HGFA (percent substrate cleavage/proteolysis) (HGFA) [%] | P4 Position Various Amino Acids Substrate Activity, HGFA (percent substrate proteolysis/cleavage) (HGFA) [%] | P3 Position Various Amino Acids Substrate Activity, TMPRSS2 (percent substrate cleavage/proteolysis) (TMPRSS2) [%] | P3 Position Various Amino Acids Substrate Activity, hepsin (percent substrate cleavage/proteolysis) (hepsin) [%] | P3 Position Various Amino Acids Substrate Activity, HGFA (percent substrate cleavage/proteolysis) (HGFA) [%] |
| --- | --- | --- | --- | --- | --- | --- | --- | --- | --- | --- | --- | --- | --- | --- | --- | --- |
| D-Lys | 0.00 | 0.00 | 16.31 | 0 | 15 | 14.70 | 14 | 0.00 | 64.56 | 49.84 | 0.00 | 21.11 | 17.66 |  |  |  |
| D-Phe | 0.00 |  | 24.14 | 0 | 5 |  | 6 | 0.00 |  | 13.15 | 0.00 |  | 8.13 | 3.80 | 24.92 | 15.22 |
| D-Pro | 0.00 |  | 19.76 | 0 | 0 |  | 9 | 0.00 |  | 20.45 | 0.00 |  | 10.30 | 0.00 | 38.88 | 4.96 |
| D-Ser | 0.00 |  | 31.72 | 0 | 2 |  | 10 | 11.55 |  | 21.84 | 0.00 |  | 7.94 | 0.00 | 54.84 | 10.86 |
| D-Thr | 0.00 |  | 22.57 | 0 | 2 |  | 9 | 0.00 |  | 25.74 | 0.00 |  | 8.61 | 0.00 | 36.69 | 6.45 |
| D-Trp | 0.00 | 31.94 | 22.02 | 0 | 5 | 76.43 | 5 | 0.00 | 24.90 | 1.48 | 0.00 | 87.59 | 7.65 |  |  |  |
| D-Tyr | 0.00 |  | 33.78 | 0 | 6 |  | 7 | 0.00 |  | 12.66 | 0.00 |  | 10.09 | 4.49 | 29.94 | 17.32 |
| D-Val | 0.00 |  | 17.70 | 0 | 1 |  | 7 | 0.00 |  | 22.58 | 0.00 |  | 8.25 | 0.00 | 27.04 | 5.76 |
